In US20230159511A1, “TETRAHYDROISOQUINOLINE COMPOUNDS AS NRF2 ACTIVATORS” (C4X Discovery Limited, priority 2020, published 2023):
Read-outs that look alike come from different tables or passages of the source.

What was measured:
[1] = tested on: NRF2 mediated gene NAD(P)H:quinone acceptor oxidoreductase 1 (NQO1) in BEAS-2B cells; assay: Beas2B NQO1 mRNA Cell Based Assay; design: species or system human; conditions: BEAS-2B cells, compound for 24 h, increase in NQO1 mRNA compared to vehicle (0.1% DMSO) control, read-out: EC50
Method in brief: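 BEAS-2B cells treated 24 h with compound; NQO1 mRNA measured by one-step TaqMan RT-PCR on crude lysates, normalised to beta actin by ΔΔCT. Fold increase over 0.1% DMSO vehicle; EC50 from four-parameter logistic fit.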

[2] = target: T1, human KEAP1 (N-term, residues 321-609) (Homo sapiens, UniProt Q14145); assay: KEAP1 Kelch Fluorescence Polarization (FP) Assay; format: binding; conditions: inhibition of Kelch domain-NRF2 interaction; 2 nM FITC-labelled NRF2 peptide, 25 nM KEAP1, 1 h room temperature; compounds below 10 nM cannot be differentiated
T1 construct: human KEAP1 (N-term, residues 321-609)
T1 sequence (Q14145 321-609): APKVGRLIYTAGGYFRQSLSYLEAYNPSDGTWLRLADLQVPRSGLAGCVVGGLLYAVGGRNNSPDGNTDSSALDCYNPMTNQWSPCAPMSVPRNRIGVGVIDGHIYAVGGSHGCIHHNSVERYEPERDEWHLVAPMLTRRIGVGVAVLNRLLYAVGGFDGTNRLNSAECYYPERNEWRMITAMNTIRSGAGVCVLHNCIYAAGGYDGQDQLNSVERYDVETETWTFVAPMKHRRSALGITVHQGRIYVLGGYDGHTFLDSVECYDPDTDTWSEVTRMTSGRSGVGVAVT
Method in brief: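 FP competition: 2 nM FITC-NRF2 peptide (LDEETGEFL) with 25 nM KEAP1 Kelch domain, pH 8.0 Tris buffer, 0.5% DMSO, 1 h at room temperature; 12-point 1:3 dilutions from 10 μM.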

For `CNC(=O)[C@@]1(C)CCCC[C@H]1C(=O)N1CCc2c(Cl)ccc(OCc3nnn(C)c3C(F)(F)F)c2[C@H]1CN1CC2(CC2)CC1=O` [Example 97, (1S,2R)-2-((S)-5-chloro-8-((1-methyl-5-(trifluoromethyl)-1H-1,2,3-triazol-4-yl)methoxy)-1-((6-oxo-5-azaspiro[2.4]heptan-5-yl)methyl)-1,2,3,4-tetrahydroisoquinoline-2-carbonyl)-N,1-dimethylcyclohexane-1-carboxamide], the EC50 ([1]; Homo sapiens) was 114 nM and the IC50 [2] was 8.9 nM.

Molecule `CNC(=O)[C@]1(C)CCCC[C@@H]1C(=O)N1CCc2c(Cl)ccc(OCc3nnn(C)c3C(F)F)c2[C@@H]1CN1CC2(CC2)CC1=O` [Example 98, (1R,2S)-2-((R)-5-chloro-8-((5-(difluoromethyl)-1-methyl-1 H-1,2,3-triazol-4-yl)methoxy)-1-((6-oxo-5-azaspiro[2.4]heptan-5-yl)methyl)-1,2,3,4-tetrahydroisopuinoline-2-carbonyl)-N,1-dimethylcyclohexane-1-carboxamide] has an EC50 [1] of 41 nM and an IC50 [2] of 6 nM.

Molecule `CNC(=O)[C@@]1(C)CCCC[C@H]1C(=O)N1CCc2c(Cl)ccc(OCc3nnn(C)c3C3CC3)c2[C@H]1CN1CCCC1=O` [Example 99, (1S,2R)-2-((S)-5-chloro-8-((5-cyclopropyl-1-methyl-1H-1,2,3-triazol-4-yl)methoxy)-1-((2-oxopyrrolidin-1-yl)methyl)-1,2,3,4-tetrahydroisoquinoline-2-carbonyl)-N,1-dimethylcyclohexane-1-carboxamide] has an EC50 ([1]; Homo sapiens) of 109 nM and an IC50 [2] of 7.4 nM.

`Cn1nnc(COc2ccc(Cl)c3c2[C@@H](CN2CC4(CC4)CC2=O)N(C(=O)[C@@H]2CCCC[C@]2(C)C(N)=O)CC3)c1C(F)F` [Example 100, (1S,2R)-2-((S)-5-chloro-8-((5-(difluoromethyl)-1-methyl-1H-1,2,3-triazol-4-yl)methoxy)-1-((6-oxo-5-azaspiro[2.4]heptan-5-yl)methyl)-1,2,3,4-tetrahydroisoquinoline-2-carbonyl)-1-methylcyclohexane-1-carboxamide] gave an EC50 ([1]; Homo sapiens) of 26 nM and an IC50 [2] of 6.4 nM.

With `CNC(=O)[C@@]1(C)CCCC[C@H]1C(=O)N1CCc2c(Cl)ccc(OCc3nnn(C)c3C)c2[C@H]1CN1CC2(CC2)CC1=O` [Example 101, (1S,2R)-2-((S)-5-chloro-8-((1,5-dimethyl-1H-1,2,3-triazol-4-yl)methoxy)-1-((6-oxo-5-azaspiro[2.4]heptan-5-yl)methyl)-1,2,3,4-tetrahydroisoquinoline-2-carbonyl)-N,1-dimethylcyclohexane-1-carboxamide] the EC50 ([1]; Homo sapiens) was 18 nM and the IC50 [2] was 6.1 nM.

In the case of `CNC(=O)[C@@]1(C)CCCC[C@H]1C(=O)N1CCc2c(Cl)ccc(OCc3cn(C)nn3)c2[C@H]1CN1CC2(CC2)CC1=O` [Example 102, (1S,2R)-2-((S)-5-chloro-8-((1-methyl-1H-1,2,3-triazol-4-yl)methoxy)-1-((6-oxo-5-azaspiro[2.4]heptan-5-yl)methyl)-1,2,3,4-tetrahydroisoquinoline-2-carbonyl)-N,1-dimethylcyclohexane-1-carboxamide], the EC50 ([1]; Homo sapiens) is reported as 59 nM and the IC50 [2] is reported as 12 nM.

With `CNC(=O)[C@@]1(C)CCCC[C@H]1C(=O)N1CCc2c(Cl)ccc(OCc3nnn(C)c3C3CC3)c2[C@H]1CN1CC2(CC2)CC1=O` [Example 103, (1S,2R)-2-((S)-5-chloro-8-((5-cyclopropyl-1-methyl-1H-1,2,3-triazol-4-yl)methoxy)-1-((6-oxo-5-azaspiro[2.4]heptan-5-yl)methyl)-1,2,3,4-tetrahydroisoquinoline-2-carbonyl)-N,1-dimethylcyclohexane-1-carboxamide] the EC50 ([1]; Homo sapiens) was 57 nM and the IC50 [2] was 7.1 nM.

With `CNC(=O)[C@@]1(C)CCCC[C@H]1C(=O)N1CCc2c(Cl)ccc(OCc3cn(C)nn3)c2[C@H]1CN1C[C@H](C)CC1=O` [Example 104, (1S,2R)-2-((S)-5-chloro-8-((1-methyl-1H-1,2,3-triazol-4-yl)methoxy)-1-(((R)-4-methyl-2-oxopyrrolidin-1-yl)methyl)-1,2,3,4-tetrahydroisoquinoline-2-carbonyl)-N,1-dimethylcyclohexane-1-carboxamide] the EC50 ([1]; Homo sapiens) was 784 nM and the IC50 [2] was 11 nM.

`CNC(=O)[C@@]1(C)CCCC[C@H]1C(=O)N1CCc2c(Cl)ccc(OCc3nnn(C)c3COC)c2[C@H]1CN1C[C@H](C)CC1=O` [Example 105, (1S,2R)-2-((S)-5-chloro-8-((5-(methoxymethyl)-1-methyl-1H-1,2,3-triazol-4-yl)methoxy)-1-(((R)-4-methyl-2-oxopyrrolidin-1-yl)methyl)-1,2,3,4-tetrahydroisoquinoline-2-carbonyl)-N,1-dimethylcyclohexane-1-carboxamide] gave an EC50 ([1]; Homo sapiens) of 790 nM and an IC50 [2] of 17 nM.

Molecule `CNC(=O)[C@@]1(C)CCCC[C@H]1C(=O)N1CCc2c(Cl)cc(F)c(OCc3nnn(C)c3C(F)F)c2[C@H]1CN1CC2(CC2)CC1=O` [Example 106, (1S,2R)-2-((S)-5-chloro-8-((5-(difluoromethyl)-1-methyl-1H-1,2,3-triazol-4-yl)methoxy)-7-fluoro-1-((6-oxo-5-azaspiro[2.4]heptan-5-yl)methyl)-1,2,3,4-tetrahydroisoquinoline-2-carbonyl)-N,1-dimethylcyclohexane-1-carboxamide] has an EC50 ([1]; Homo sapiens) of 25 nM and an IC50 [2] of 6.7 nM.

`Cn1nnc(COc2c(F)cc(Cl)c3c2[C@@H](CN2CC4(CC4)CC2=O)N(C(=O)[C@@H]2CCCC[C@]2(C)C(N)=O)CC3)c1C(F)F` [Example 107, (1S,2R)-2-((S)-5-chloro-8-((5-(difluoromethyl)-1-methyl-1H-1,2,3-triazol-4-yl)methoxy)-7-fluoro-1-((6-oxo-5-azaspiro[2.4]heptan-5-yl)methyl)-1,2,3,4-tetrahydroisoquinoline-2-carbonyl)-1-methylcyclohexane-1-carboxamide] showed an EC50 ([1]; Homo sapiens) of 37 nM and an IC50 [2] of 6.2 nM.

`CNC(=O)[C@@]1(C)CCCC[C@H]1C(=O)N1CCc2c(Cl)cc(F)c(OCc3nnn(C)c3C(F)F)c2[C@H]1CN1CCOCC1=O` [Example 108, (1S,2R)-2-((S)-5-chloro-8-((5-(difluoromethyl)-1-methyl-1H-1,2,3-triazol-4-yl)methoxy)-7-fluoro-1-((3-oxomorpholino)methyl)-1,2,3,4-tetrahydroisoquinoline-2-carbonyl)-N,1-dimethylcyclohexane-1-carboxamide] was tested, and the EC50 ([1]; Homo sapiens) was 654 nM and the IC50 [2] was 7.3 nM.

For `CNC(=O)[C@@]1(C)CCCC[C@H]1C(=O)N1CCc2c(Cl)cc(F)c(OCc3nnn(C)c3C(F)F)c2[C@H]1CN1CCCC1=O` [Example 109, (1S,2R)-2-((S)-5-chloro-8-((5-(difluoromethyl)-1-methyl-1H-1,2,3-triazol-4-yl)methoxy)-7-fluoro-1-((2-oxopyrrolidin-1-yl)methyl)-1,2,3,4-tetrahydroisoquinoline-2-carbonyl)-N,1-dimethylcyclohexane-1-carboxamide], the EC50 ([1]; Homo sapiens) was 140 nM and the IC50 [2] was 7.5 nM.

Work on `CNC(=O)[C@@]1(C)CCCC[C@H]1C(=O)N1CCc2c(Cl)cc(F)c(OCc3cn(C)nn3)c2[C@H]1CN1CC2(CC2)CC1=O` [Example 110, (1S,2R)-2-((S)-5-chloro-7-fluoro-8-((1-methyl-1H-1,2,3-triazol-4-yl)methoxy)-1-((6-oxo-5-azaspiro[2.4]heptan-5-yl)methyl)-1,2,3,4-tetrahydroisoquinoline-2-carbonyl)-N,1-dimethylcyclohexane-1-carboxamide] yielded an EC50 ([1]; Homo sapiens) of 66 nM and an IC50 [2] of 7.1 nM.

For `C[C@]1(C(N)=O)CCCC[C@H]1C(=O)N1CCc2c(Cl)cc(F)c(OCc3nnn4c3CCCC4)c2[C@H]1CN1CC2(CC2)CC1=O` [Example 111, (1S,2R)-2-((S)-5-chloro-7-fluoro-1-((6-oxo-5-azaspiro[2.4]heptan-5-yl)methyl)-8-((4,5,6,7-tetrahydro-[1,2,3]triazolo[1,5-a]pyridin-3-yl)methoxy)-1,2,3,4-tetrahydroisoquinoline-2-carbonyl)-1-methylcyclohexane-1-carboxamide], the EC50 ([1]; Homo sapiens) was 30 nM and the IC50 [2] was 7.2 nM.

`Cc1c(COc2c(F)cc(Cl)c3c2[C@@H](CN2CC4(CC4)CC2=O)N(C(=O)[C@@H]2CCCC[C@]2(C)C(N)=O)CC3)nnn1C` [Example 112, (1S,2R)-2-((S)-5-chloro-8-((1,5-dimethyl-1H-1,2,3-triazol-4-yl)methoxy)-7-fluoro-1-((6-oxo-5-azaspiro[2.4]heptan-5-yl)methyl)-1,2,3,4-tetrahydroisoquinoline-2-carbonyl)-1-methylcyclohexane-1-carboxamide] gave an EC50 ([1]; Homo sapiens) of 99 nM and an IC50 [2] of 7 nM.

`CNC(=O)[C@@]1(C)CCCC[C@H]1C(=O)N1CCc2c(Cl)ccc(OCc3nnn(C)c3C3CC3)c2[C@H]1CN1C[C@H](C)CC1=O` [Example 113, (1S,2R)-2-((S)-5-chloro-8-((5-cyclopropyl-1-methyl-1H-1,2,3-triazol-4-yl)methoxy)-1-(((R)-4-methyl-2-oxopyrrolidin-1-yl)methyl)-1,2,3,4-tetrahydroisoquinoline-2-carbonyl)-N,1-dimethylcyclohexane-1-carboxamide] showed an EC50 ([1]; Homo sapiens) of 299 nM and an IC50 [2] of 10.9 nM.

With `CNC(=O)[C@H]1CCCC[C@H]1C(=O)N1CCc2c(Cl)ccc(OCc3nnn(C)c3C(F)F)c2[C@H]1CN1CC2(CC2)CC1=O` [Example 114, (1S,2R)-2-((S)-5-chloro-8-((5-(difluoromethyl)-1-methyl-1H-1,2,3-triazol-4-yl)methoxy)-1-((6-oxo-5-azaspiro[2.4]heptan-5-yl)methyl)-1,2,3,4-tetrahydroisoquinoline-2-carbonyl)-N-methylcyclohexane-1-carboxamide] the EC50 ([1]; Homo sapiens) was 230 nM and the IC50 [2] was 9.1 nM.
